Results: patent US7838288B2, “Modulators of odorant receptors” (Duke University, priority 2004, dated 2010)

Key:
olfr62 = test: CRE-luciferase reporter gene assay, olfr62; type: cell-based, mouse; conditions: Hana3A cells
Experimental: Four ORs (S6/79, S18, S46 and S50) previously assayed using other techniques (see, e.g., Malnic, B., et al. (1999) Cell 96, 713-723; herein incorporated by reference in its entirety) were tested against an assay panel of aliphatic alcohols, aldehydes and acids and some other odorants. Additionally, five “orphan” class I ORs (MOR23-1, MOR31-4, MOR31-6, MOR32-5 and MOR32-11) whose cognate ligands were unknown were tested. At a suprathreshold concentration of 100 uM, all these ORs were odorant selective, responding to only a small subset of the odorants tested (see FIG. 11A). This specificity was retained at lower, more physiologically relevant concentrations. Many of these ORs responded to odorants present in micromolar concentrations. The cell-surface expression of these ORs by living-cell immunofluorescence were evaluated. Some ORs (S18, MOR31-4, MOR31-6 and MOR32-5) were strongly expressed while other ORs (S6, S50, MOR23-1, MOR32-11) were weakly expressed (see FIG. 12). The present invention is not limited to a particular mechanism. Indeed, an understanding of the mechanism is not necessary to practice the present invention. […] Finally, two additional orphan class II ORs, MOR203-1 and olfr62, were tested against a panel of 139 odorants. […] Olfr62 responded to coumarine and piperonal (see FIG. 11C). […] When parental 293T cells for these ORs were used in this luciferase assay, little or no response to the odorants was observed. The present invention is not limited to a particular mechanism. Indeed, an understanding of the mechanism is not necessary to practice the present invention.
Dual-Glo system (Promega) for luciferase assay was used. CRE-Luciferase (Stratagene) was used to measure the receptor activities. Renilla luciferase driven by constitutively active SV40 promoter (pRL-SV40: Promega) was used as an internal control. Cells were plated on poly-D-lysine coated 96 well plates (BIOCOAT, Beckton Dickinson). After 8 hours (for experiments shown in FIGS. 8B and 8C) or 12 hours (for experiments shown in FIG. 8D and FIG. 11) after transfection, the medium was replaced with CD293 chemically defined medium (Invitrogen) and the plates were incubated for one hour at 37 degrees C. The medium was replaced with 50 ul of odorant solutions dissolved in CD293 and incubated for 10 hours (for experiments shown in FIGS. 8B and 8C) or 4 hours (for experiments shown in FIG. 8D and FIG. 11) at 37 degrees C. The manufacture's protocol for measuring luciferase and Renilla luciferase activities was followed. Luminescence was measured using Wallac Victor 1420 (Perkin-Elmer). Normalized luciferase activity was calculated as [Luc (N)-Luc (0)]/RL (N), where Luc (N)=Luminescent count of a certain well, Luc (0)=Luminescent count without odorant for each OR, and RL (N)=Luminescent count of Renilla Luciferase of each well. For cAMP assays, cells were plated onto 24-well plate. […]. Prism software (Graphpad) was used for data analysis. […]

[1] = tested on: Eight other ORs located near the IVA locus; test: Luciferase assay, other ORs near the IVA locus; type: cell-based
From the text: In experiments conducted during the course of the present invention, not only three class I ORs (S46, MOR23-1, MOR31-4) but also MOR203-1, a class II OR, responded to nonanoic acid. The present invention is not limited to a particular mechanism. Indeed, an understanding of the mechanism is not necessary to practice the present invention. […] Olfr62 is one of the closely related ORs located near or at the IVA locus, implicated in isovaleric acid sensation (see, e.g., Griff, I. C., and Reed, R. R. (1995) Cell 83, 407-414; Zhang, X., and Firestein, S. (2002) Nat Neurosci 5, 124-133; each herein incorporated by reference in their entireties). […] The present invention is not limited to a particular mechanism. Indeed, an understanding of the mechanism is not necessary to practice the present invention.
Dual-Glo system (Promega) for luciferase assay was used. CRE-Luciferase (Stratagene) was used to measure the receptor activities. Renilla luciferase driven by constitutively active SV40 promoter (pRL-SV40: Promega) was used as an internal control. […] Luminescence was measured using Wallac Victor 1420 (Perkin-Elmer). Normalized luciferase activity was calculated as [Luc (N)-Luc (0)]/RL (N), where Luc (N)=Luminescent count of a certain well, Luc (0)=Luminescent count without odorant for each OR, and RL (N)=Luminescent count of Renilla Luciferase of each well. […]

CC(C)CC(=O)O [isovaleric acid, Isovaleric acid]
response of olfr62 to odorant (luciferase) (olfr62): did not respond | response of eight other ORs near the IVA locus to odorant [1]: none of them responded
